In series [1] the test system is SARS-Cov-2 Germany/BavPat1/2020. Put plainly: SARS-CoV-2 Virospot reduction assay (Viroclinics), Vero E6 cells. Format: cell-based. The protocol: SARS-CoV-2 testing was carried out by the independent contract research organization Viroclinics, Netherlands, using the SARS—CoV-2 Virospot reduction assay. This is a high throughput assay to determine the IC50/IC90 (also termed EC50/EC90) of putative antiviral compounds as compared to other assay formats (such as traditional plaque count assays), and improved traceability from raw data to results. The assay measures drug or antibody-mediated reduction of virus propagation in cell monolayers, by virus-specific immunostaining and automated imaging of infected cells. Automated counting of the number of infected foci (i.e., “spots”) provides the raw data for IC50/IC90 calculations.
A serial dilution series of the test article is mixed with a fixed amount of virus and the virus/inhibitor is added to Vero E6 cells. Virus control wells without inhibitor and cell controls without drug and virus are included. Viral propagation is measured after 16-24 h incubation by TrueBlue immunostaining of infected cells and automated counting of viral “spots” (corresponding to area of viral growth and protein expression) and the IC50 value is calculated using 4 replicates.
Adherent cells were seeded in multi-well plates. Cell cultures were inoculated with a standardized amount of virus, in the absence and presence of serial compound dilutions, followed by 18-24 hours of incubation and an appropriate virus detection method (Immunostaining and count spots using a CTL Immunospot Image Analyser).
Virus signals were detected in presence of each compound concentration determine the 50% inhibitory concentration (IC50) and the 90% inhibitory concentration (IC90). The IC50 and IC90 values were calculated from the virus signals using the method described by Zielinska et al. (Virol J. 2005, 2(84)).
Remdesivir was used as a positive control.
Although cytotoxicity was not directly measured, the assay required intact cell monolayers to deliver a result. Severe cytotoxicity would be evident upon visual inspection and any deleterious effect of compound upon cell health is likely to negatively impact the formation of “spots”. This was not reported.

For series [2], the system named is SARS-Cov-2 SA (B.1.351). The series is described as above. Format: cell-based.
The subject of series [3] is SARS-Cov-2 UK (B.1.1.7). The description is as above. Format: cell-based.
Series [4] deals with SARS-CoV-2. The series can be described thus: SARS-CoV-2 Virospot reduction assay, (strain not specified). Format: cell-based. To be noted: for activity against strains of SARS-CoV-2: good in vitro activity e.g. IC50<100 μg/mL.
Series [5] in a line: Hygroscopicity observed on recovery of spray dried material. Format: physicochemical. The following applies: on collection/recovery after spray drying.
The subject of series [6] is SARS-CoV-1. The following applies: SARS-CoV-1 in vitro; cited from earlier work.
Series [7] concerns Huh7-hACE2 cells. The following applies: cited from earlier work.
The subject of series [8] is Huh7-hACE2 cells. The following applies: cited from earlier work. The source holds these as a separate data set.
Series [9] relates to cells in culture. To be noted: cited from earlier work.
Series [10] concerns SARS-CoV-2. The following applies: Huh7-hACE2 cells; cited from earlier work.
[11] abbreviates: Severe acute respiratory syndrome coronavirus 2, Vero C1008, read-out: IC50.
[12] abbreviates: Severe acute respiratory syndrome coronavirus 2, Vero C1008, read-out: IC90.
Where [13] appears, read: Severe acute respiratory syndrome coronavirus 2, Virospot reduction assay.

≈ marks a conversion by molar mass, not a printed value. Like-named read-outs stand apart in the source and are kept apart here. Some results are limits rather than exact numbers.

In the case of `C[C@H]1O[C@H](O[C@H]2[C@H](O)[C@@H](O)[C@@H](O[C@H]3[C@H](O)[C@@H](O)C(O)O[C@@H]3CO)O[C@@H]2CO)[C@H](O)[C@@H](O)[C@@H]1N[C@H]1C=C(CO)[C@@H](O)[C@H](O)[C@H]1O` (stereo partly drawn) [Acarbose], the IC50 in series [1] (setting [11]), in series [2] (setting [11]) and in [3] (setting [11]) was more than 200 µg/mL throughout. Moreover, the IC90 in [1] (setting [12]), in [2] (setting [12]) and in series [3] (setting [12]) was more than 200 µg/mL in each case.

Take `[N-]=[N+]=Nc1ccc(NCCCCCCN2C[C@H](O)[C@@H](O)[C@H](O)[C@H]2CO)c([N+](=O)[O-])c1` [NAP-DNJ, N-(6′-[4″-azido-2″-nitrophenylamino]hexyl)-1-deoxynojirimycin]: the IC50 in [1] (setting [11]) is 1.4 µg/mL (≈ 3.3 µM); in series [2] (setting [11]), 0.1 µg/mL (≈ 0.236 µM); in [3] (setting [11]) it was 1.7 µg/mL (≈ 4.01 µM); in [4] (setting [13]), less than 10 µg/mL. Also, the IC90 in series [1] (setting [12]) is 10.2 µg/mL (≈ 24 µM); in series [2] (setting [12]), 5.7 µg/mL (≈ 13.4 µM); in series [3] (setting [12]), 7.9 µg/mL (≈ 18.6 µM); in series [4] (setting [13]) it was less than 40 µg/mL. Moreover, the “activity against strains of SARS-CoV-2” value in series [4] is “active against at least three strain”.

In the case of `CC(C)(C)NC(=O)N(CCCCCCN1C[C@H](O)[C@@H](O)[C@H](O)[C@H]1CO)C1CCCCC1` [IHVR-19029, 3-tert-butyl-1-cyclohexyl-1-[6-[(2R,3R,4R,5S)-3,4,5-trihydroxy-2-(hydroxymethyl)piperidin-1-yl]hexyl]urea], the half-inhibitory concentration (IC50) in series [1] (setting [11]) turned out to be 48.5 µg/mL (≈ 109 µM); in series [2] (setting [11]) it was 5.5 µg/mL (≈ 12.4 µM); in series [3] (setting [11]), 58.5 µg/mL (≈ 132 µM). In addition, the IC90 in series [1] (setting [12]), in series [2] (setting [12]) and in series [3] (setting [12]) was more than 200 µg/mL in each case. Also, in series [4], the “activity against strains of SARS-CoV-2” value is recorded as “active against at least three strain”.

In the case of `OCC(CO)N[C@H]1C[C@](O)(CO)[C@@H](O)[C@H](O)[C@H]1O` [Voglibose], the half-maximal inhibitory concentration (IC50) in series [1] (setting [11]) was more than 200 µg/mL; in series [2] (setting [11]) it was 91.2 µg/mL (≈ 341 µM); in series [3] (setting [11]), more than 200 µg/mL. For the same molecule, the IC90 in [1] (setting [12]), in series [2] (setting [12]) and in series [3] (setting [12]) was more than 200 µg/mL each time. In [4], the “activity against strains of SARS-CoV-2” value is reported as “active against at least one strain”.

As for `OC[C@@H]1[C@@H](O)[C@H](O)[C@@H](O)CN1CCCCCOCC12CC3CC(CC(C3)C1)C2` [AMP-DNM, N-adamantanemethyloxypentyl-1-deoxynojirimycin], the concentration for half-maximal inhibition (IC50) stood at 8.3 µg/mL (≈ 20.9 µM) in [1], 2.7 µg/mL (≈ 6.79 µM) in series [2] and 7.7 µg/mL (≈ 19.4 µM) in series [3]. In addition, the results for the IC90 in [1], in series [2] and in series [3] were 28.6 µg/mL (≈ 71.9 µM), 24.8 µg/mL (≈ 62.4 µM) and 34.4 µg/mL (≈ 86.5 µM), respectively. Besides, the “activity against strains of SARS-CoV-2” value in [4] is “active against at least three strain”.

As to `OCCN1C[C@H](O)[C@@H](O)[C@H](O)[C@H]1CO` [Glyset (Miglitol), miglitol], the IC50 was more than 200 µg/mL in series [1] (setting [11]), 90 µg/mL (≈ 434 µM) in [2] (setting [11]) and more than 200 µg/mL in series [3] (setting [11]). Besides, the IC90 in [1] (setting [12]), in series [2] (setting [12]) and in series [3] (setting [12]) was more than 200 µg/mL in each case. For the same molecule, in series [4], the “activity against strains of SARS-CoV-2” value is “active against at least one strain”. For the same molecule, the hygroscopicity entry in series [5] was “extremely hygroscopic”.

For the molecule `CCCCN1C[C@H](O)[C@@H](O)[C@H](O)[C@H]1CO` [Miglustat (NB-DNJ), N-butyl-1-deoxynojirimycin], the EC50 in series [6] is approximately 100 µg/mL (≈ 456 µM); in [10], 19.9 ± 3.4 µM. Moreover, the IC50 in [1] (setting [11]) is more than 200 µg/mL; in series [2], 15.0 µg/mL (≈ 68.4 µM); in [2] (setting [11]) it was 19.2 µg/mL (≈ 87.6 µM); in [3] (setting [11]), more than 200 µg/mL. Moreover, the 90% effect concentration (IC90) in series [1] (setting [12]), in series [2] (setting [12]) and in series [3] (setting [12]) was more than 200 µg/mL throughout. The “lack of cytotoxicity up to the highest concentrations tested” value in series [7] is 200 µM. Also, the CC50 in series [8] was more than 1000 µM. Moreover, the “activity against strains of SARS-CoV-2” value in series [4] is “active against at least one strain”. Further, the cytotoxicity entry in series [9] was “little cytotoxicity”.

With `CCCC(=O)O[C@H]1CN2CC[C@H](O)[C@@H]2[C@@H](O)[C@@H]1O` [Celgosivir (6-O-butanoylcastanospermine), 6-O-butanoylcastanospermine], the IC50 in series [1] (setting [11]), in [2] (setting [11]), in [3] (setting [11]) and in series [4] (setting [13]) was more than 200 µg/mL each time. Besides, the IC90 in series [1] (setting [12]), in series [2] (setting [12]) and in series [3] (setting [12]) was more than 200 µg/mL in each case. Moreover, the “lack of cytotoxicity up to the highest concentrations tested” value in series [7] (viable nuclei, Huh7-hACE2 cells) was 500 µM. In series [10], the EC50 was 1 ± 0.2 µM.

Usually IC50 stands for the concentration needed to halve the response being measured. For orientation: IC90 means the concentration at which the effect reaches the 90% level. For orientation: EC50 means the midpoint of the concentration-response curve. As a reminder, the CC50 is the concentration that lowers cell viability or growth by half.

The record behind these values is US20240016786A1, “GLUCOSIDASE INHIBITORS FOR THE TREATMENT AND PREVENTION OF PULMONARY INFECTIONS” (priority 2020, published 2024).
